Key:
[1] = biological target: T1, Thromboxane-A synthase (Homo sapiens, UniProt P24557); assay: biochemical; format: tissue-based, Platelet; settings: platelet;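 further: enzyme inhibition assay with PGH2 supplied as substrate; in other assays of this panel Not Active means under 50% inhibition at 10 µM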
T1 sequence (P24557 whole entry): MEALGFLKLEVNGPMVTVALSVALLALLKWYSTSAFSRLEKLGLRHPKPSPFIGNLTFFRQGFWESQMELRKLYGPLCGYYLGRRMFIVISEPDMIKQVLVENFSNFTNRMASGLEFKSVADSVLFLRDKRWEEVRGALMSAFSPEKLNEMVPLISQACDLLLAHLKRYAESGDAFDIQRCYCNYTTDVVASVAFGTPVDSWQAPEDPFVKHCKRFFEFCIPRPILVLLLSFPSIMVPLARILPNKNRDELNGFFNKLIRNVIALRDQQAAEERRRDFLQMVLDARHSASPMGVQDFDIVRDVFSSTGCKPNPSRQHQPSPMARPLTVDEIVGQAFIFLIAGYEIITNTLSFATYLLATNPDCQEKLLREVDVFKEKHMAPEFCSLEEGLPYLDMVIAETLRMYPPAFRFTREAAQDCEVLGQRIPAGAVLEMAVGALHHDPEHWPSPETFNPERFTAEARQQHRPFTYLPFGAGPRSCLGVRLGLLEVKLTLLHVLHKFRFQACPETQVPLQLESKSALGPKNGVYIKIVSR

[2] = biological target: T2, Neutrophil elastase (Homo sapiens, UniProt P08246); format: tissue-based;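 further: inhibition of neutrophil elastase enzyme activity, measured with a p-nitroanilide-linked peptide substrate; in other assays of this panel Not Active means under 50% inhibition at 10 µM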
T2 sequence (P08246 whole entry): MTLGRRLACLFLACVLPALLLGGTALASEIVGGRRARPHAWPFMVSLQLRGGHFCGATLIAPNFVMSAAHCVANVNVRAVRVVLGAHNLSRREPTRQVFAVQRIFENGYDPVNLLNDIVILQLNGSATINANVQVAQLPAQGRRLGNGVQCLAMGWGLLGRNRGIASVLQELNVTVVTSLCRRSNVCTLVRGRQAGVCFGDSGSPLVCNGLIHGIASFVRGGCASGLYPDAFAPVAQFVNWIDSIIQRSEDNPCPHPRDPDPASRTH

[3] = DRUGMATRIX: GABAA, Chloride Channel, TBOB radioligand binding (ligand: [3H] TBOB); format: cell membranes, Rattus norvegicus, Wistar, Cerebral cortex, Membrane; settings: Not Active = under 50% inhibition at 10 µM
[4] = biological target: 5-hydroxytryptamine receptor 2B (Homo sapiens, UniProt P41595); format: cell membranes, CHO-K1, Membrane; settings: cho-k1; further: in other assays of this panel Not Active means under 50% inhibition at 10 µM
[5] = biological target: T3, Alpha-1A adrenergic receptor (Rattus norvegicus, UniProt P43140); assay: DRUGMATRIX: Alpha-1A adrenergic receptor radioligand binding (ligand: prazosin); format: cell membranes, Wistar, Submaxillary gland, Membrane; settings: Not Active = under 50% inhibition at 10 µM
T3 sequence (P43140 whole entry): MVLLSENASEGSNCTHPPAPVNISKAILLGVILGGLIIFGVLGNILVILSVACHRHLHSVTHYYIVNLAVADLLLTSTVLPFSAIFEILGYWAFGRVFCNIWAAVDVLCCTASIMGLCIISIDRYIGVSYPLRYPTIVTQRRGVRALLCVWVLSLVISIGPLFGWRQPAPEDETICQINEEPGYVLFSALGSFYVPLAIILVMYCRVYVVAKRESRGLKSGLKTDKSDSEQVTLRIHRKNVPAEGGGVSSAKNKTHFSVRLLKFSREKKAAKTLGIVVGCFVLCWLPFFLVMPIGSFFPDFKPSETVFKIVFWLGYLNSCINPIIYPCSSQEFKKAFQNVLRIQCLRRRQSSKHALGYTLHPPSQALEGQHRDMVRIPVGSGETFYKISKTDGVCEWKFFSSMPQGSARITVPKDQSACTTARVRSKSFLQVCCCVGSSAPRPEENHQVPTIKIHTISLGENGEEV

[6] = biological target: Matrix metalloproteinase-9 (Homo sapiens, UniProt P14780); format: cell-based;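 further: inhibition of isolated MMP-9 enzyme activity toward a synthetic peptide substrate, from the DrugMatrix protease screening panel; in other assays of this panel Not Active means under 50% inhibition at 10 µM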
[7] = biological target: Substance-P receptor (Homo sapiens, UniProt P25103); format: cell membranes, Membrane; settings: cho; further: in other assays of this panel Not Active means under 50% inhibition at 10 µM
Chain of Substance-P receptor (P25103 whole entry): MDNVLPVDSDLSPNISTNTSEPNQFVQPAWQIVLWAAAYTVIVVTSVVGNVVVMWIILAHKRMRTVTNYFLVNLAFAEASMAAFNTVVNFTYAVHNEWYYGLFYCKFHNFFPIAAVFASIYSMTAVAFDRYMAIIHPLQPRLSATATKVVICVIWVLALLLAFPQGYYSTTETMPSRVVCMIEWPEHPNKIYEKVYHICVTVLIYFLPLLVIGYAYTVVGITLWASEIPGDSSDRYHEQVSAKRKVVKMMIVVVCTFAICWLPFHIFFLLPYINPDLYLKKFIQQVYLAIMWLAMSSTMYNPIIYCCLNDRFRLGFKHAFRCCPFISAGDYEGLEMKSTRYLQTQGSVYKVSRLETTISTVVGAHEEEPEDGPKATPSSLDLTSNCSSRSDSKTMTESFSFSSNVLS

Chain of 5-hydroxytryptamine receptor 2B (P41595 whole entry): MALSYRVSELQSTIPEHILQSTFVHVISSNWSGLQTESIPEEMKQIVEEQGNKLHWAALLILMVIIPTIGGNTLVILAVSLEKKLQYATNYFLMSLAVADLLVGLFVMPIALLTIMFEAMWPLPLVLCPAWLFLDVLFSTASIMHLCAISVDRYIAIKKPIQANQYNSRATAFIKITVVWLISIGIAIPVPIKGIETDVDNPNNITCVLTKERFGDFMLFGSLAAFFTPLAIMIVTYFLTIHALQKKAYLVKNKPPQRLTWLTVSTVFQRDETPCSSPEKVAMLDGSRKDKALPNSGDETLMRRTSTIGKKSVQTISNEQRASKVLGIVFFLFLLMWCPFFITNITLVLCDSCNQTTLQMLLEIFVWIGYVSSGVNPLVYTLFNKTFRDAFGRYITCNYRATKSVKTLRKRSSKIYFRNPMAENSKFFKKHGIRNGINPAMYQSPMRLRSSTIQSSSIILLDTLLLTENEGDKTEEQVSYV
Chain of Matrix metalloproteinase-9 (P14780 whole entry): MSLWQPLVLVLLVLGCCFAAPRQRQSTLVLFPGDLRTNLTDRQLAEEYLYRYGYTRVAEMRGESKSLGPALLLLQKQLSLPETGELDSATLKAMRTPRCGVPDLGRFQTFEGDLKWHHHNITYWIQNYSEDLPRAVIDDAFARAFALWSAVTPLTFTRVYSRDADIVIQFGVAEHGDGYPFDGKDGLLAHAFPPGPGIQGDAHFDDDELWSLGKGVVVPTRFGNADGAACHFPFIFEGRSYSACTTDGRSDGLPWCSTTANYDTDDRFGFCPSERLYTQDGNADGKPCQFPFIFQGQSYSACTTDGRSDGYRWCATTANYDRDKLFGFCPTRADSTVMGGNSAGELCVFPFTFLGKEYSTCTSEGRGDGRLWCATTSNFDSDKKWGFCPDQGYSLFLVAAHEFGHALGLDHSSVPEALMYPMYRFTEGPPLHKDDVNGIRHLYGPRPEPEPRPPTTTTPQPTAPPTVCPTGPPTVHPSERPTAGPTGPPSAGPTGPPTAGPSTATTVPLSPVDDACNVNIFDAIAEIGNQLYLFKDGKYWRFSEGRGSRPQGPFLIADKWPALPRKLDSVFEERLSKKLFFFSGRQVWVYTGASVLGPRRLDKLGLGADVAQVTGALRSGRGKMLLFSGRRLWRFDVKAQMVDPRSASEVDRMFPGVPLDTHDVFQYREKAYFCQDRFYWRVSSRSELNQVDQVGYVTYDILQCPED

Compound	IC50 [1]	IC50 [2]	IC50 [3]	Ki [3]	IC50 [4]	IC50 [5]	IC50 [6]	IC50 [7]	IC50 ([3]; read-out: IC50) [nM]	Ki ([3]; read-out: Ki) [nM]
O=C1c2ccccc2C(=O)C1c1ccccc1 [PHENINDIONE]	Not Active	Not Active	Not Active	Not Active	Not Active	Not Active	Not Active	Not Active		
NC(=O)NC(=O)Cc1ccccc1 [PHENACEMIDE]	Not Active	Not Active	Not Active	Not Active	Not Active	Not Active	Not Active	Not Active		
O=C(NCCN1CCOCC1)c1ccc(Cl)cc1 [MOCLOBEMIDE]	Not Active	Not Active	Not Active	Not Active	Not Active	Not Active	Not Active	Not Active		
OC[C@H]1O[C@@H]2O[C@H]3[C@H](O)[C@@H](O)[C@@H](O[C@H]4[C@H](O)[C@@H](O)[C@@H](O[C@H]5[C@H](O)[C@@H](O)[C@@H](O[C@H]6[C@H](O)[C@@H](O)[C@@H](O[C@H]7[C@H](O)[C@@H](O)[C@@H](O[C@H]1[C@H](O)[C@H]2O)O[C@@H]7CO)O[C@@H]6CO)O[C@@H]5CO)O[C@@H]4CO)O[C@@H]3CO [ALFADEX]	Not Active	Not Active	Not Active	Not Active	Not Active	Not Active	Not Active	Not Active		
ClC1=C(Cl)[C@]2(Cl)[C@@H]3[C@@H]4C[C@@H]([C@H]5O[C@@H]45)[C@@H]3[C@@]1(Cl)C2(Cl)Cl [DIELDRIN]	Not Active	Not Active			Not Active	Not Active	Not Active	Not Active	335	300
O=c1[nH]c2ccccc2c2ccccc12	Not Active	Not Active	Not Active	Not Active	Not Active	Not Active	Not Active	Not Active		
CCC1(c2ccccc2)C(=O)NC(=O)NC1=O [PHENOBARBITAL]	Not Active	Not Active	Not Active	Not Active	Not Active	Not Active	Not Active	Not Active		
Nc1ccc(C(=O)O)c(O)c1 [AMINOSALICYLIC ACID]	Not Active	Not Active	Not Active	Not Active	Not Active	Not Active	Not Active	Not Active		
